{"source": "patent US20250057808A1", "about": "“COMPOSITION COMPRISING BETA LACTAM FOR TREATING ALCOHOL DEPENDENCE AND ALCOHOL ASSOCIATED DISEASES OR CONDITIONS” (Temple University of the Commonwealth System of Higher …, priority 2023, published 2025)", "key": {"RAGE": {"tested_on": "RAGE", "test": "Western blot RAGE in subregions of mPFC and NAc", "type": "in vivo, Male P rats", "protocol": "(§1) All P rats were euthanized by CO2 inhalation and decapitated with a guillotine 24 hours after the final i.p. injection was administered on Day 6 of Week 6. Brains were removed and immediately frozen on dry ice and stored at −80° C. The mPFC subregions (infralimbic cortex and prelimbic cortex) and NAc subregions (core and shell) were dissected using a cryostat machine kept at −20° C. Surgical blades were used to dissect all brain regions following visualized landmarks using the stereotaxic coordinates provided by Paxinos and colleague's rat brain stereotactic atlas. All brain regions were stored in −80° C. Western Blot analyses.\n(§2) Western blot was performed to determine the expression of BDNF, TNF-α, RAGE, HMGβ-1, and β-tubulin in the subregions of mPFC and NAc as preformed in previous studies.\n(§3) Brain samples were lysed with a lysing buffer containing protease inhibitors. The amount of protein in each sample was quantified using a detergent compatible protein assay (Bio-Rad, Hercules, CA, USA). Polyacrylamide gels (10%) were loaded with the lysate mixture, and proteins were separated using gel electrophoresis for 1 hour. Proteins were then transferred from the gels onto Polyvinylidene difluoride (PVDF) membranes (BioRad). After transfer, membranes were incubated for 30 minutes in a mixture of nonfat milk in 1×Tris-buffered saline with Tween-20 (TBST) at room temperature. Membranes were then incubated at 4° C. for 24 hours with primary antibodies: anti-rabbit BDNF (1:1000, Abeam, #ab108319), anti-rabbit TNF-α (1:500, Abeam, #ab9739), anti-rabbit HMGβ-1 (1:500, Abeam, #ab18256), and anti-rabbit RAGE (1:1000, Abeam, #ab37407). Anti-mouse-β-tubulin (1:1000, Cell Signaling Technology, #D71G9) was used as a loading control antibody. After incubating for 24 hours, secondary antibody such as donkey anti-rabbit (1:4000, Invitrogen, #31458) or anti-mouse (1:4000, Cell Signaling, #7076S) was added to the membrane for 1 hour at room temperature. The membranes were then washed with 1×TBST three times for 5 minutes each and then dried. Membranes were then incubated in chemiluminescent reagents (Super Signal West Pico, Pierce Inc.) for 2 minutes. Blot images were developed using ChemiDoc. Imaging System and ImageJ software version 1.53a were used to quantify and analyze the expression of BDNF, TNF-α, RAGE, HMGβ-1, and β-tubulin.\n(§4) The data for the water/saline control group were expressed as 100% based on the values corresponding to the ethanol/saline and ethanol/MC-100093 groups for each set of blotting. Thus, the expression of selected proteins for each group (ethanol/saline group or ethanol/MC-100093 group) was calculated relative to the water/saline control group being set to 100%.\n(§5) Statistical analyses were performed using GraphPad Prism Version 10. Two-way repeated measures ANOVA followed by Bonferroni post-hoc tests were used to compare water and ethanol intake, and body weight, amongst water group, ethanol/saline group and ethanol/MC-100093 group. A one-way ANOVA test was performed to compare the expression of the studied proteins in selected brain regions in water/saline, ethanol/saline and ethanol/MC-100093 groups. Statistical significance was determined by a p-value of or less than 0.05."}, "BDNF": {"tested_on": "BDNF", "test": "Western blot BDNF in subregions of mPFC and NAc", "type": "in vivo, Male P rats", "protocol": "as §1, §2, §3, §4, §5"}, "[1]": {"conditions": "100 mg/kg i.p., compared to ethanol/saline group"}, "[2]": {"conditions": "ethanol/MC-100093 group (100 mg/kg i.p.) compared to water/saline and ethanol/saline groups"}}, "note": "Entries after “also recorded” stand apart in the source; their conditions may differ.", "data": [{"smiles": "C[C@@H](O)[C@H]1C(=O)N[C@@H]1[C@@H](C)C(=O)N1CCN(C)CC1", "note": "[MC-100093]", "values": [{"measurement": "Decrease in RAGE expression in the IL", "setting": "RAGE; [1]", "result": 14, "unit": "%"}, {"measurement": "Decrease in RAGE expression in the NAc core", "setting": "RAGE; [1]", "result": 12, "unit": "%"}, {"measurement": "RAGE expression in the NAc shell", "setting": "RAGE; [1]", "result": "decreased RAGE expression"}, {"measurement": "RAGE expression in the PL", "setting": "RAGE; [1]", "result": "decreased RAGE expression"}, {"measurement": "RAGE expression in subregions of mPFC and NAc (summary)", "setting": "RAGE; post-treatment with MC-100093 100 mg/kg i.p., 100 mg/kg", "result": "normalized RAGE expression; also recorded: attenuated ethanol-induced increase in receptor for advanced glycation end products (RAGE)"}, {"measurement": "BDNF expression in the NAc shell", "setting": "BDNF; [1]", "result": "significant increase in BDNF expression"}, {"measurement": "Increase in BDNF expression in the NAc core", "setting": "BDNF; 100 mg/kg i.p., compared to water/saline and ethanol/saline groups", "result": 11, "unit": "%"}, {"measurement": "Increase in BDNF expression in the IL (mPFC)", "setting": "BDNF; [2]", "result": 40, "unit": "%"}, {"measurement": "Increase in BDNF expression in the PL (mPFC)", "setting": "BDNF; [2]", "result": 27, "unit": "%"}, {"measurement": "BDNF expression in the subregions of NAc and mPFC (summary)", "setting": "BDNF; male P rats, 100 mg/kg i.p., 100 mg/kg", "result": "attenuated ethanol-induced downregulation of brain derived neurotrophic factor (BDNF) expression"}]}]}
